Laboratory results reported in patent US20210253598A1, “ARYL ANNULATED MACROCYCLIC INDOLE DERIVATIVES” (priority 2017, published 2021).
Several values for one entry are separate records, joined by “and”; a condition that tells them apart may be missing. Equal entries are not always repeated. Structures can show the parent of a compound that is named as a salt. Where two headings read alike, the source gives them in different places.

Legend:
AMO-1 = test: Anti-proliferative effect in AMO-1 cells, CellTiter-Glo (Assay 7); format: cell-based
Outline: (§1)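 Cells were plated and incubated overnight at 37 °C alongside a day 0 reference plate, then exposed to compound for 72 h. Viability was read by CellTiter-Glo luminescence, and IC50s were calculated using day 0 values and DMSO controls as references.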

MCL-1 [1] = target: T1, MCL-1 (Homo sapiens, UniProt Q07820, K194A/K197A/R201A); test: Protein-protein interaction assay MCL-1/Noxa BH3 peptide, TR-FRET (MCL-1 assay, Assay 1); format: binding; conditions: MBP-MCL-1 / Noxa BH3 peptide
T1 sequence (Q07820 173-321 K194A/K197A/R201A, looked up): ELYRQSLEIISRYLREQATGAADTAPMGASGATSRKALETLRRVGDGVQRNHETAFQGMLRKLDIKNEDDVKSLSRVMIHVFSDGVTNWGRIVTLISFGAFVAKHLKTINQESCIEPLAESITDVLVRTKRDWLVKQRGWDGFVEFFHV
Outline: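 TR-FRET competition between compounds and a biotin-PEG Noxa BH3 tracer for 1 nM MBP-MCL-1 (residues 173-321). Incubation was 1 h at 22 °C in the dark, then overnight at 4 °C, in 50 mM Tris pH 7 buffer with KF and DTT, after a 10-min compound pre-equilibration. Normalized ratios were fitted with a 4-parameter Hill equation to give IC50.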

SUDHL5 = test: Anti-proliferative effect in SUDHL5 cells, CellTiter-Glo (Assay 7); format: cell-based
Outline: as §1

A2780 = test: Anti-proliferative effect in A2780 cells, CellTiter-Glo (Assay 7); format: cell-based; conditions: several values per example
Outline: as §1

BCL-XL = BCL-XL (Homo sapiens, UniProt Q07817); test: Protein-protein interaction assay BCL-XL/Bad BH3 peptide, TR-FRET (BCL-XL assay, Assay 2); format: binding; conditions: His-BCL-XL / Bad BH3 peptide, median
Sequence of BCL-XL (Q07817 1-212): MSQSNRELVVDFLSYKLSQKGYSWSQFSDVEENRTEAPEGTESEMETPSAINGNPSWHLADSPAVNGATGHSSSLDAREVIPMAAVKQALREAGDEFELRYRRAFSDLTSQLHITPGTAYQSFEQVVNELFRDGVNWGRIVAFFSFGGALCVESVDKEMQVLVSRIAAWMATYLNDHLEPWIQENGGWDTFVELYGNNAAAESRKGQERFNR

MCL-1 [2] = target: T1, MCL-1; test: Protein-compound interaction assay, surface plasmon resonance (SPR assay, Assay 8); format: binding
Text: Protein-Compound Interaction Assay (SPR Assay)
The ability of the compounds described in this invention to bind to MCL-1 may be determined using surface plasmon resonance (SPR). This allows for the quantification of binding in terms of the equilibrium dissociation constant (KD [M]), as well as association and dissociation rate constants (kon [1/M 1/s] and koff [1/s], respectively). The measurements may be performed using Biacore® T200 or Biacore® S200 instruments (GE Healthcare).
Briefly, carboxymethylated dextran biosensor chips (Series S Sensor Chip CM5, GE Healthcare) were activated with 1-ethyl-3-(3-dimethylaminopropyl)-carbodiimide hydrochloride (EDC) and N-hydroxysuccinimide (NHS) according to the supplier's instructions. MBP-MCL-1 was diluted in 1×PBS-P+ (GE Healthcare) and injected on the activated chip surface. Subsequently, a solution of 1 M ethanolamine-HCl (GE Healthcare) was injected to block unreacted groups, resulting in approximately 400-2500 response units (RU) of immobilized protein. A reference surface was generated by treatment with NHS-EDC and ethanolamine-HCl. […] Compounds were injected for 60 s followed by a dissociation time of up to 1000 s.
The double-referenced sensorgrams were fit to a simple reversible Langmuir 1:1 reaction mechanism as implemented in the Biacore® T200 and S200 evaluation software (T200 evaluation software version 2.0 and S200 evaluation software version 1.0, GE Healthcare).

SUDHL10 = test: Anti-proliferative effect in SUDHL10 cells, CellTiter-Glo (Assay 7); format: cell-based; conditions: median, read-out: Antiproli SUDHL10 [M] (median)
Procedure: Assessment of the Anti-Proliferative Effect of Compounds in Different Cell Lines
The impact of compounds on the proliferation of different cell lines was assessed using the CellTiter-Glo® Luminescent Cell Viability reagent from Promega (G7573).
In parallel, cells were plated in a reference (day 0) plate for time zero determination. Cells were incubated in a humidified incubator at 37° C. overnight.
Rim wells were excluded. The cells were incubated for 72 hours in a humidified incubator at 37° C. The day 0 plate was measured by adding 30 μL/well of CTG solution (CellTiter-Glo® Luminescent Cell Viability reagent, Promega G7573) to time zero wells in the reference plate followed by a 10 minutes incubation and luminescence reading at 0.1 ms. using the PHERAstar FS microplate reader (BMG Labtech).
After 72 hours incubation, the treated plates were measured in the same way as the day 0 plate mentioned above. The Bella DRC Master Sheet was used to calculate IC50s, with CI=day 0 values and C0=DMSO control values.

MV-4-11 = test: Anti-proliferative effect in MV-4-11 cells, CellTiter-Glo (Assay 7); format: cell-based; conditions: MV-4-11, 72 hours incubation, CellTiter-Glo, several values per example, read-out: Antiproli MV-4-11
Outline: as §1

[3] = AMO-1, 72 hours incubation, CellTiter-Glo; several values per example; read-out: Antiproli AMO-1
[4] = SUDHL5, 72 hours incubation, CellTiter-Glo, median, read-out: Antiproli SUDHL5 [M] (median)
[5] = A2780, 72 hours incubation, CellTiter-Glo, read-out: Antiproli A2780
[6] = SPR, immobilized MBP-MCL-1, 25° C., geometric mean, read-out: KD
[7] = KD [M], SPR, immobilized MBP-MCL-1, 25° C., geometric mean
[8] = SPR, immobilized MBP-MCL-1, 25° C., geometric mean
[9] = Homo sapiens, SU-DHL-5, 72 h, SUDHL5, 72 hours incubation, CellTiter-Glo, median, read-out: Antiproli SUDHL5 [M] (median)
[10] = read-out: koff [1/s], SPR, immobilized MBP-MCL-1, 25° C., geometric mean
[11] = read-out: kon [1/M 1/s], SPR, immobilized MBP-MCL-1, 25° C., geometric mean
[12] = Homo sapiens, AMO1, 72 h, AMO-1, 72 hours incubation, CellTiter-Glo; several values per example; read-out: Antiproli AMO-1

| SMILES | IC50 (AMO-1; [3]) | IC50 (MCL-1 [1]; MCL-1 Assay [M] (median)) | IC50 (SUDHL5; [4]) [M] | IC50 (A2780; [5]) | IC50 (BCL-XL) [nM] | Kd (MCL-1 [2]; [7]) [M] | IC50 (MV-4-11) | IC50 (SUDHL5; [9]) [M] | koff (MCL-1 [2]; [10]) [s⁻¹] | kon (MCL-1 [2]; [11]) [M⁻¹ s⁻¹] | further results |
| --- | --- | --- | --- | --- | --- | --- | --- | --- | --- | --- | --- |
| CCc1nn(CCN2CCOCC2)c2c1-c1c(Cl)ccc3c(CCCOc4cccc5cc(F)ccc45)c(C(=O)O)n(c13)Cc1ccccc1COC2 (single isomer, unassigned; enantiomer 1) [Example 52, (−)-3-Chloro-4-ethyl-17-{3-[(6-fluoronaphthalen-1-yl)oxy]propyl}-6-[2-(morpholin-4-yl)ethyl]-6,7,9,14-tetrahydroindolo[7,1-fg]pyrazolo[3,4-d][2,8]benzoxazacycloundecine-16-carboxylic Acid (Enantiomer 1)] | 2270 nM | 9.6e-10 | 5.7e-07 | 2.41e-06 M | > 20000 |  |  |  |  |  | Kd (MCL-1 [2]; [6]): 1.5e-09 M; koff (MCL-1 [2]; read-out: koff [1/s]): 0.024 s⁻¹; kon (MCL-1 [2]; read-out: kon [1/M 1/s]): 1.6e+07 M⁻¹ s⁻¹ |
| Cc1c2c(nn1C)COCc1ccccc1Cn1c(C(=O)O)c(CCCOc3cccc4cc(F)ccc34)c3ccc(Cl)c-2c31 (single isomer, unassigned; enantiomer 2) [Example 50, (+)-3-Chloro-17-{3-[(6-fluoronaphthalen-1-yl)oxy]propyl}-4,5-dimethyl-5,7,9,14-tetrahydroindolo[7,1-fg]pyrazolo[3,4-d][2,8]benzoxazacycloundecine-16-carboxylic acid-N-ethylethanamine Salt (Enantiomer 2)] | 2820 nM | 1.4e-09 | 1.5e-06 | 1.17e-05 M and 8.65e-06 M |  | 3.8e-09 | 2210 nM and 3070 nM and 2530 nM |  |  |  | IC50 (SUDHL10; SUDHL10, 72 hours incubation): 1.2e-06 M; koff (MCL-1 [2]; [8]): 0.0061 s⁻¹; kon [1/M 1/s] (MCL-1 [2]; [8]): 1.6E6 1/M 1/s |
| Cc1c2c(nn1C)COCc1ccccc1Cn1c(C(=O)O)c(CCCOc3cccc4cc(F)ccc34)c3ccc(Cl)c-2c31 (racemic) [Example 48, (rac)-3-Chloro-17-{3-[(6-fluoronaphthalen-1-yl)oxy]propyl}-4,5-dimethyl-5,7,9,14-tetrahydroindolo[7,1-fg]pyrazolo[3,4-d][2,8]benzoxazacycloundecine-16-carboxylic Acid] |  | 5.9e-10 |  |  |  | 8e-09 | 4810 nM | 1.6e-06 | 0.006 | 750000 | IC50 (MV-4-11; Homo sapiens, MV4-11, 72 h): 4130 nM |
| Cc1c2c(nn1C)COCc1ccccc1Cn1c(C(=O)O)c(CCCOc3cccc4cc(F)ccc34)c3ccc(F)c-2c31 (single isomer, unassigned; enantiomer 1) [Example 65, (−)-3-fluoro-17-{3-[(6-fluoronaphthalen-1-yl)oxy]propyl}-4,5-dimethyl-5,7,9,14-tetrahydroindolo[7,1-fg]pyrazolo[3,4-d][2,8]benzoxazacycloundecine-16-carboxylic acid-N-ethylethanamine Salt (Enantiomer 1)] | 1750 nM | 1.3e-09 |  |  | > 20000 | 1.4e-09 |  | 1.1e-06 | 0.011 | 8e+06 | IC50 (AMO-1; [12]): 2000 nM; IC50 (A2780; Homo sapiens, A2780, 72 h, A2780, 72 hours incubation, CellTiter-Glo, read-out: Antiproli A2780): 1.01e-05 M |
| Cc1c2c(nn1C)COCc1ncccc1Cn1c(C(=O)O)c(CCCOc3cccc4ccccc34)c3cccc-2c31 (single isomer, unassigned; enantiomer 1) [Example 8, 4,5-Dimethyl-17-[3-(naphthalen-1-yloxy)propyl]-5,7,9,14-tetrahydropyrazolo[4′,3′:9,10]-pyrido[2′,3′:3,4][1,6]oxazacycloundecino[8,7,6-hi]indole-16-carboxylic acid-N-ethylethanamine Salt (Enantiomer 1)] |  | 1.5e-09 | 3.2e-06 |  | > 20000 | 3.4e-09 |  |  |  |  |  |
| CCNCC.Cc1c2c(nn1C)COCc1ncccc1Cn1c(C(=O)O)c(CCCOc3cccc4ccccc34)c3ccc(Cl)c-2c31 (single isomer, unassigned; enantiomer 1) [Example 43, 3-Chloro-4,5-dimethyl-17-[3-(naphthalen-1-yloxy)propyl]-5,7,9,14-tetrahydropyrazolo-[4′,3′:9,10]pyrido[2′,3′:3,4][1,6]oxazacycloundecino[8,7,6-hi]indole-16-carboxylic acid-N-ethylethanamine Salt (Enantiomer 1)] | 5160 nM and 7470 nM |  | 1.2e-06 | 2.34e-05 M | > 20000 |  | 3230 nM and 2830 nM and 4420 nM |  |  |  | IC50 (SUDHL10; SUDHL10, 72 hours incubation): 1.5e-06 M; IC50 (MCL-1 [1]; median, read-out: MCL-1 Assay [M] (median)): 5.1e-10 M; koff (MCL-1 [2]; [8]): 0.0096 s⁻¹; kon [1/M 1/s] (MCL-1 [2]; [8]): 5.6E6 1/M 1/s; Kd (MCL-1 [2]; [6]): 1.7e-09 M |
| Cc1c2c(nn1C)COCc1ccccc1Cn1c(C(=O)O)c(CCCOc3cccc4ccccc34)c3ccc(Cl)c-2c31 (single isomer, unassigned; enantiomer 1) [Example 37, (−)-3-Chloro-4,5-dimethyl-17-[3-(naphthalen-1-yloxy)propyl]-5,7,9,14-tetrahydroindolo[7,1-fg]pyrazolo[3,4-d][2,8]benzoxazacycloundecine-16-carboxylic Acid (Enantiomer 1)] |  | 1.3e-09 |  |  | > 20000 | 4.7e-09 |  |  | 0.011 | 2.4e+06 |  |
| Cc1c2c(nn1C)COCc1ccccc1Cn1c(C(=O)O)c(CCCOc3cccc4cc(F)ccc34)c3ccc(Cl)c-2c31 (single isomer, unassigned; enantiomer 1) [Example 49, (−)-3-Chloro-17-{3-[(6-fluoronaphthalen-1-yl)oxy]propyl}-4,5-dimethyl-5,7,9,14-tetrahydroindolo[7,1-fg]pyrazolo[3,4-d][2,8]benzoxazacycloundecine-16-carboxylic acid-N-ethylethanamine Salt (Enantiomer 1)] |  | 4.7e-10 |  | 7.62e-06 M and 5.26e-06 M | > 20000 | 3e-09 | 3410 nM and 3780 nM | 1e-06 | 0.0058 | 1.9e+06 | IC50 (SUDHL10; Homo sapiens, SU-DHL10, SUDHL10, 72 hours incubation): 1.2e-06 M; IC50 (AMO-1; [12]): 1920 nM; IC50 (MV-4-11; Homo sapiens, MV4-11, 72 h): 3090 nM |
| Cc1c2c(nn1C)COCc1ccccc1Cn1c(C(=O)O)c(CCCOc3cccc4ccccc34)c3ccc(F)c-2c31 (single isomer, unassigned; enantiomer 1) [Example 68, (−)-3-Fluoro-4,5-dimethyl-17-{3-[(naphthalen-1-yl)oxy]propyl}-5,7,9,14-tetrahydroindolo[7,1-fg]pyrazolo[3,4-d][2,8]benzoxazacycloundecine-16-carboxylic acid-N-ethylethanamine Salt (Enantiomer 1)] |  | 3.2e-09 |  |  | > 20000 |  |  |  |  |  | IC50 (AMO-1; read-out: Antiproli AMO-1; AMO-1, 72 hours incubation, CellTiter-Glo; several values per example): 4400 nM and 4890 nM; IC50 (SUDHL5; read-out: Antiproli SUDHL5 [M] (median), SUDHL5, 72 hours incubation, CellTiter-Glo): 1.4e-06 M; IC50 (A2780; Homo sapiens, A2780, 72 h, read-out: Antiproli A2780 [M], A2780, 72 hours incubation, CellTiter-Glo): 2.9e-05 M |
